Among the data in PMC10904284 (iScience, 2024) are Ka values, retold here.

In the test the target is CLso STP (Candidatus Liberibacter solanacearum, UniProt A0A094YYW1). It counts as binding.
CLso STP, sequence (A0A094YYW1 1-207): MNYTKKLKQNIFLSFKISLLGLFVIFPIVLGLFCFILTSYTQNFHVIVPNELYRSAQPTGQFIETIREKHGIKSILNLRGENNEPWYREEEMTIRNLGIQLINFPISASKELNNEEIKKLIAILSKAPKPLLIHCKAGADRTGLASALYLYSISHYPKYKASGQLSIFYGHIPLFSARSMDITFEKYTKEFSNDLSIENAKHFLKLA

Glucose 6-phosphate [G6P] showed a Ka of 17.58 M⁻¹ s⁻¹.
